Where “and” joins values, the source holds several entries; their conditions need not be identical. Identical values can stand only once. Records with an inconclusive call do not appear.
Tested on: BDF1 mice, colon carcinoma 38 sc, T/C %
Experiment: NCI In Vivo Anticancer Drug Screen. Data for tumor model Colon Carcinoma 38 (subcutaneous) in B6D2F1 (BDF1) mice
Settings: endpoint: median tumor weight (est.), higher = larger tumour
In short: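 Compound antitumor activity was assessed in mice carrying transplantable tumors. Survival or tumor size was recorded, and each value is the treated-group measurement divided by that of the vehicle-treated control group.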

[1] = dose: 100.0 mg/kg/injection, schedule: Q07DX002 (ip), vehicle: saline with Tween-80
[2] = dose: 200.0 mg/kg/injection, schedule: Q07DX002 (ip), vehicle: saline with Tween-80

## CC(C)(O)/C=C/C(=O)[C@](C)(O)[C@H]1[C@H](O)C[C@@]2(C)[C@@H]3CC=C4[C@@H](C[C@H](O)C(=O)C4(C)C)[C@]3(C)C(=O)C[C@]12C
dose: 0.25 mg/kg/injection, schedule: Q07DX002 (ip), vehicle: saline + Tween-80 + alcohol
  T/C: 95 % of control
dose: 0.5 mg/kg/injection, schedule: Q07DX002 (ip), vehicle: saline + Tween-80 + alcohol
  T/C: 106 % of control
dose: 1.0 mg/kg/injection, schedule: Q07DX002 (ip), vehicle: saline + Tween-80 + alcohol
  T/C: 65 % of control

## S=C=NCCc1ccccc1
[1]
  T/C: 82 % of control and 105 % of control

## O=C(N/N=C\c1cc(Br)cc(Br)c1O)N/N=C/c1cc(Br)cc(Br)c1O
dose: 12.5 mg/kg/injection, schedule: Q07DX002 (ip), vehicle: saline with Tween-80
  T/C: 119 % of control
[1]
  T/C: 90 % of control
[2]
  T/C: 102 % of control
dose: 400.0 mg/kg/injection, schedule: Q07DX002 (ip), vehicle: saline with Tween-80
  T/C: 92 % of control

## Cc1ccc(-c2cc(=O)c3cccc(CC(=O)O)c3o2)cc1
[1]
  T/C: 83 % of control
[2]
  T/C: 50 % of control

## CC(=O)O[C@@H]1[C@@H](O)C2=C3[C@]4(C)[C@@H]1C(C)(C)C(=O)C[C@@H]4[C@]3(O)[C@H](OC(C)=O)[C@@]1(C[C@@H]1C)C2=O
dose: 3.12 mg/kg/injection, schedule: Q07DX003 (ip), vehicle: saline with Tween-80
  T/C: 97 % of control
dose: 6.25 mg/kg/injection, schedule: Q07DX003 (ip), vehicle: saline with Tween-80
  T/C: 93 % of control
dose: 25.0 mg/kg/injection, schedule: Q07DX003 (ip), vehicle: saline with Tween-80
  T/C: 86 % of control
dose: 50.0 mg/kg/injection, schedule: Q07DX003 (ip), vehicle: saline with Tween-80
  T/C: 64 % of control

## Cc1noc(N)c1N
dose: 25.0 mg/kg/injection, schedule: Q07DX002 (ip), vehicle: water
  T/C: 79 % of control
dose: 50.0 mg/kg/injection, schedule: Q07DX002 (ip), vehicle: water
  T/C: 82 % of control
dose: 100.0 mg/kg/injection, schedule: Q07DX002 (ip), vehicle: water
  T/C: 78 % of control
dose: 200.0 mg/kg/injection, schedule: Q07DX002 (ip), vehicle: water
  T/C: 101 % of control
dose: 400.0 mg/kg/injection, schedule: Q07DX002 (ip), vehicle: water
  T/C: 74 % of control
dose: 800.0 mg/kg/injection, schedule: Q07DX002 (ip), vehicle: water
  T/C: 95 % of control

## Cc1cc2c(=O)c3ccccc3oc2c(C(=O)O)c1C
dose: 50.0 mg/kg/injection, schedule: Q07DX002 (ip), vehicle: sodium bicarbonate
  T/C: 69 % of control
dose: 100.0 mg/kg/injection, schedule: Q07DX002 (ip), vehicle: sodium bicarbonate
  T/C: 42 % of control
dose: 200.0 mg/kg/injection, schedule: Q07DX002 (ip), vehicle: sodium bicarbonate
  T/C: 37 % of control
dose: 400.0 mg/kg/injection, schedule: Q07DX002 (ip), vehicle: sodium bicarbonate
  T/C: 44 % of control

## CCCCCCCCCCCCCCC/C([O-])=N/[N+](C)(C)CC(C)O (stereo unspecified)
dose: 25.0 mg/kg/injection, schedule: Q01DX001 (ip), vehicle: saline
  T/C: 164 % of control
dose: 200.0 mg/kg/injection, schedule: Q01DX001 (ip), vehicle: saline
  T/C: 120 % of control
dose: 400.0 mg/kg/injection, schedule: Q01DX001 (ip), vehicle: saline
  T/C: 85 % of control

## ClC1=C(Cl)C2(Cl)C3C(Cl)C(Cl)CC3C1(Cl)C2(Cl)Cl (stereo unspecified)
dose: 9.5 mg/kg/injection, schedule: Q07DX002 (ip), vehicle: saline with Tween-80
  T/C: 103 % of control
dose: 19.0 mg/kg/injection, schedule: Q07DX002 (ip), vehicle: saline with Tween-80
  T/C: 114 % of control
dose: 28.0 mg/kg/injection, schedule: Q07DX002 (ip), vehicle: saline + Tween-80 + alcohol
  T/C: 102 % of control
dose: 28.0 mg/kg/injection, schedule: Q07DX002 (ip), vehicle: saline with Tween-80
  T/C: 100 % of control
dose: 50.0 mg/kg/injection, schedule: Q07DX002 (ip), vehicle: other
  T/C: 63 % of control and 86 % of control
dose: 56.0 mg/kg/injection, schedule: Q07DX002 (ip), vehicle: saline + Tween-80 + alcohol
  T/C: 86 % of control
dose: 56.0 mg/kg/injection, schedule: Q07DX002 (ip), vehicle: saline with Tween-80
  T/C: 92 % of control and 93 % of control
dose: 100.0 mg/kg/injection, schedule: Q07DX002 (ip), vehicle: other
  T/C: 84 % of control
dose: 112.0 mg/kg/injection, schedule: Q07DX002 (ip), vehicle: saline with Tween-80
  T/C: 100 % of control

— PubChem BioAssay AID212 (DTP/NCI, 2004)
